{
  "source": "paper PMC4965148",
  "about": "(PLoS ONE, 2016)",
  "key": {"Adrenergic α2A": {"molecular_target": "Adrenergic α2A (Homo sapiens, UniProt P08913)", "sequence (P08913 whole entry)": "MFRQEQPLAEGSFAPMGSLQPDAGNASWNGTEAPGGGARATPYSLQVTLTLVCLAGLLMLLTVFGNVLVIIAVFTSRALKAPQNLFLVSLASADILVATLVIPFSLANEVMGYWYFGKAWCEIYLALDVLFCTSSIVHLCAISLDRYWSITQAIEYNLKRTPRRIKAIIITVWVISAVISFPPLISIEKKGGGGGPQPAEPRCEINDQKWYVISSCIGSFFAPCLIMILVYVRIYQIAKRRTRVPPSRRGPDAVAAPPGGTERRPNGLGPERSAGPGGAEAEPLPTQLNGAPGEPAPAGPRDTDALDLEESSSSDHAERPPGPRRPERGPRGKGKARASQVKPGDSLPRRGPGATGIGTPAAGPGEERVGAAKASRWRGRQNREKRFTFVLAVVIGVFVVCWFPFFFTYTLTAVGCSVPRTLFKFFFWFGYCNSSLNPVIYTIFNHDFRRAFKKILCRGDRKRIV", "experiment": "Selectivity panel, binding"}, "rat α1β1δε nAChR": {"molecular_target": "T1, rat α1β1δε nAChR (Rattus norvegicus, UniProt P09660+P25108+P25109+P25110)", "T1 construct": "expressed in transfected cells; host or cells: HEK293 (made by Bristol-Myers Squibb)", "experiment": "Ca2+ flux (FLIPR) agonist/antagonist assay", "format": "cell-based", "details": "FLIPR antagonist mode, EC90 ACh"}, "PDE3": {"molecular_target": "PDE3", "experiment": "Selectivity panel, enzyme", "format": "biochemical", "details": "Human"}, "α7 nAChR": {"molecular_target": "T2, α7 nAChR (Mus musculus, UniProt P49582)", "T2 construct": "One forebrain hemisphere from each animal was thawed and homogenized in assay buffer; from tissue; host or cells: forebrain homogenate of dosed male C57Bl/6 mice", "T2 sequence (P49582 23-502)": "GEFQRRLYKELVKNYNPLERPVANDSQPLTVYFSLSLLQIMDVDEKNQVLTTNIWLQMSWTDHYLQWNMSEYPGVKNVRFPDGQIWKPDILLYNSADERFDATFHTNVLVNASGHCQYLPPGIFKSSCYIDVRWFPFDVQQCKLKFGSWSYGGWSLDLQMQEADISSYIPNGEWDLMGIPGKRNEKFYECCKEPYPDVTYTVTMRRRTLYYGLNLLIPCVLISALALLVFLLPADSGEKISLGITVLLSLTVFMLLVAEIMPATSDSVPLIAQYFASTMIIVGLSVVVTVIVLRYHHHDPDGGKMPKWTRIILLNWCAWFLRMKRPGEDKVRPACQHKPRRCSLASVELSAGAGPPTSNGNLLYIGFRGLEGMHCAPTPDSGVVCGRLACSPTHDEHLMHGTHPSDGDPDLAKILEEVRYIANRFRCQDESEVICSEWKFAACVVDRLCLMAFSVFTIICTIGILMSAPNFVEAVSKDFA", "experiment": "Ex vivo α7 nAChR occupancy ([3H]-A-585539)", "format": "in vivo"}, "Adrenergic α1D": {"molecular_target": "Adrenergic α1D (Homo sapiens, UniProt P25100)", "experiment": "Selectivity panel, binding"}, "Progesterone receptor": {"molecular_target": "Progesterone receptor (Homo sapiens, UniProt P06401)", "sequence (P06401 whole entry)": "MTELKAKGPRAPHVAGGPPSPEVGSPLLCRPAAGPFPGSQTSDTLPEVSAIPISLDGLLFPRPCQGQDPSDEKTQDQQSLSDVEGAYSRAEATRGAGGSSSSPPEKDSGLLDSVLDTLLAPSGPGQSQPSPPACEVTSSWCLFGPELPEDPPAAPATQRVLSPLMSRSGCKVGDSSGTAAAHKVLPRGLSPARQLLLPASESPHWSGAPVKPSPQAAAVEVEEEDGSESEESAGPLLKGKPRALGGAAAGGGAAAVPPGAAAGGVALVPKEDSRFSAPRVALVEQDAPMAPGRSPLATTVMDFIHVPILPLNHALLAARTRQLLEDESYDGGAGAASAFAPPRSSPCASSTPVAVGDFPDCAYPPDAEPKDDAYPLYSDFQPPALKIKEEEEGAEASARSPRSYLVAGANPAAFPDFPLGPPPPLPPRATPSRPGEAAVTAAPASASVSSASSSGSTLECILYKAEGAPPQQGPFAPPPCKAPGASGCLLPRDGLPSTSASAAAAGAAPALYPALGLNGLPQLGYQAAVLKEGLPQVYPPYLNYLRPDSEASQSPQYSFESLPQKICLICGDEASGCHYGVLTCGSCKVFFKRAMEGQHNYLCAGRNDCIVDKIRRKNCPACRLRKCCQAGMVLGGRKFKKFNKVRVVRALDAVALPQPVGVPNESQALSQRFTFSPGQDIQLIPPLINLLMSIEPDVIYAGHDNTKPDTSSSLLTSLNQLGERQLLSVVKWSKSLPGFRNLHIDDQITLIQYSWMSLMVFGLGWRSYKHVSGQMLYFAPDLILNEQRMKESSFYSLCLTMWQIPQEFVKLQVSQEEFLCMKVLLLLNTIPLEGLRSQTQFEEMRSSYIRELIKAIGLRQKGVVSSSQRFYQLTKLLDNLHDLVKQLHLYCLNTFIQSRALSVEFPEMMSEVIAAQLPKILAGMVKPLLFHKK", "experiment": "Selectivity panel, binding"}, "[1]": {"tested_on": "neonatal PCP treated rats", "experiment": "Rat neonatal PCP mismatch negativity"}, "[2]": {"tested_on": "neonatal PCP treated rats", "experiment": "Rat neonatal PCP ID/ED set shifting", "format": "in vivo", "details": "for Number of trials to criteria, Complex discrimination / Number of trials to criteria, Simple discrimination: individual rats", "experimental": "Male pups were treated with either 0.9% saline (sham) or PCP (20 mg/kg, sc) on post-natal days 7, 9 and 11 and then singly housed after weaning on postnatal days 21–25. All studies were conducted in adult animals (2–4 months of age) using methods adapted from. Rats were food-restricted (15g/rat/day) for 7 days prior to the initiation of training and throughout the remainder of the study. At the time of testing the average (± SEM) body weight ranged from 278 ± 6g to 296 ± 9g across the individual treatment groups. The animals then received 3 days of training during which they were handled, habituated to the test arena (5 min/day) and trained to dig in a ceramic pot for a food reward (Honey Nut Cheerios). The testing arena was constructed of black plastic (45 cm wide x 60 cm long x 45 cm tall) and divided into 3 compartments, i.e. a separate starting box and 2 choice boxes separated by an opaque wall. Each choice box contained a terracotta (4 inch diameter) pot, filled with digging media and with scented oil applied to the rim. At the beginning of each trial the animal was placed in the start box, the sliding door was opened and the subject was allowed to freely explore the two choice boxes. Both pots were initially baited with food until the subject reliably retrieved the food rewards from each. Thereafter, rats were trained to discriminate between either 2 distinct odors (stimulus dimension 1) or 2 distinct digging media (stimulus dimension 2) in order to correctly identify the baited pot. On the first trial only, rats were allowed to dig in both pots if an error was made (with the trial scored as an error trial). Thereafter animals were allowed to dig in one pot only per trial and were tested until the performance criterion of 6 consecutive correct choices was achieved. Each trial was limited to a maximum duration of 5 min and any subject not achieving performance criteria was eliminated from the study. On completion of a successful odor discrimination animals were then trained to successfully complete a simple discrimination trial based on digging media. Odor and digging media used in these initial training trials were not used again for ID/ED testing. […] All subjects were brought to the experimental laboratory at least 30 min prior to behavioral assessment. To determine ID/ED performance rats were tested for their ability to successfully complete a series of discriminations based on either odor or digging media. In all instances subjects were pre-assigned one stimulus dimension (i.e. digging media or odor) as the correct predictor of the food reward for the first series of discriminations. Only at the final stage i.e. the extra-dimensional shift (EDS) was the subject required to shift attention away from the assigned stimulus dimension to a different dimension (e.g. odor to digging media) to correctly identify the baited pot. The sequence of discriminations was a follows: simple discrimination (SD), compound discrimination (CD), intra-dimensional shift 1 (IDS1), intra-dimensional shift 2 (IDS2), intra-dimensional shift 2 reversal (IDS2rev) and EDS and examples of exemplars are shown in S1 Table. For all discrimination stages successful completion was defined as 6 consecutive correct trials at which point subjects progressed to the next phase of the task. The test session ended when either i) all discrimination phases were successfully completed or ii) testing had proceeded for 120 min. The average duration of a test session was 1 h and all subjects completed the ID/ED task within the allotted timeframe."}, "Adrenergic α1B": {"molecular_target": "Adrenergic α1B (Homo sapiens, UniProt P35368)", "sequence (P35368 whole entry)": "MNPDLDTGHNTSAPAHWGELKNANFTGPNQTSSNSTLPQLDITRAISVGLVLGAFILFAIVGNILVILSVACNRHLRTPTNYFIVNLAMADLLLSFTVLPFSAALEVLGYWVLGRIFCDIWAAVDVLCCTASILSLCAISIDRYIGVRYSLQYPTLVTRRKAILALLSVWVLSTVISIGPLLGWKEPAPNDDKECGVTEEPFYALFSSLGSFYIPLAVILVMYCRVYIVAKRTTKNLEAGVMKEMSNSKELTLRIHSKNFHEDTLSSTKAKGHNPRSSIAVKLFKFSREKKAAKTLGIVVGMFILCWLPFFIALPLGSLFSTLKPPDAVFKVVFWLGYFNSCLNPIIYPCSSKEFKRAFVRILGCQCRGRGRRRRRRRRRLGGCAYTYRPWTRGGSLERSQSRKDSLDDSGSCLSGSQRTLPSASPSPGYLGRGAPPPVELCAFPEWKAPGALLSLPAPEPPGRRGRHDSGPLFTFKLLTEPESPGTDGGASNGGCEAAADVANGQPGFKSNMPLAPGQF", "experiment": "Selectivity panel, binding"}, "Muscarinic M2": {"molecular_target": "Muscarinic M2 (Homo sapiens, UniProt P08172)", "sequence (P08172 whole entry)": "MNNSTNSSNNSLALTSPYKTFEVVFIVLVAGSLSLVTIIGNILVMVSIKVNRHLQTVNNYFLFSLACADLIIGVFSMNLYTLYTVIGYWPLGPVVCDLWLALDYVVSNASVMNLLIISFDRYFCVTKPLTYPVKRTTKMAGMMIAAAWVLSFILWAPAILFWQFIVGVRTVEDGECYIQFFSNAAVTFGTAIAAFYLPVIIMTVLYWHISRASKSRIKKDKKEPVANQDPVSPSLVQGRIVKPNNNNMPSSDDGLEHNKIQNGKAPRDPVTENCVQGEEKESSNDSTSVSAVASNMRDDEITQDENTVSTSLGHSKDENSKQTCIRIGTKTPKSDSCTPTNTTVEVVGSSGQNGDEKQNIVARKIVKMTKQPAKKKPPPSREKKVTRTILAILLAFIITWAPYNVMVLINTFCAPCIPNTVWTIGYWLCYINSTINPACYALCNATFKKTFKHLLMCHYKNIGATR", "experiment": "Selectivity panel, binding"}, "Muscarinic M4": {"molecular_target": "Muscarinic M4 (Homo sapiens, UniProt P08173)", "sequence (P08173 whole entry)": "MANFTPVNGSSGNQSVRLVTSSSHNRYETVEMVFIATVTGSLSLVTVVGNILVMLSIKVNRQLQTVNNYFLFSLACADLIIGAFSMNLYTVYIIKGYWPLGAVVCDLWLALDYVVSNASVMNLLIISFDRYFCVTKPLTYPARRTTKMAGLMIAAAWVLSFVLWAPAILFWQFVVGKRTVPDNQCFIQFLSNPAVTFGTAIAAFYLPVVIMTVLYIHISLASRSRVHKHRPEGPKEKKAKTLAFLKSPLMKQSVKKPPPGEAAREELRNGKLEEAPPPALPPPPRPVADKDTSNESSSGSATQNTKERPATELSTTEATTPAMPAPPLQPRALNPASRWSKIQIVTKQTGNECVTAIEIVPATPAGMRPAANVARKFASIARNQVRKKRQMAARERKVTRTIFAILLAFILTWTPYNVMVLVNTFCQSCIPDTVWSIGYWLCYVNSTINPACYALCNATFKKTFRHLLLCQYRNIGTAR", "experiment": "Selectivity panel, binding", "details": "read-out: % inhibition @ 10 µM"}, "Muscarinic M5": {"molecular_target": "Muscarinic M5 (Homo sapiens, UniProt P08912)", "sequence (P08912 whole entry)": "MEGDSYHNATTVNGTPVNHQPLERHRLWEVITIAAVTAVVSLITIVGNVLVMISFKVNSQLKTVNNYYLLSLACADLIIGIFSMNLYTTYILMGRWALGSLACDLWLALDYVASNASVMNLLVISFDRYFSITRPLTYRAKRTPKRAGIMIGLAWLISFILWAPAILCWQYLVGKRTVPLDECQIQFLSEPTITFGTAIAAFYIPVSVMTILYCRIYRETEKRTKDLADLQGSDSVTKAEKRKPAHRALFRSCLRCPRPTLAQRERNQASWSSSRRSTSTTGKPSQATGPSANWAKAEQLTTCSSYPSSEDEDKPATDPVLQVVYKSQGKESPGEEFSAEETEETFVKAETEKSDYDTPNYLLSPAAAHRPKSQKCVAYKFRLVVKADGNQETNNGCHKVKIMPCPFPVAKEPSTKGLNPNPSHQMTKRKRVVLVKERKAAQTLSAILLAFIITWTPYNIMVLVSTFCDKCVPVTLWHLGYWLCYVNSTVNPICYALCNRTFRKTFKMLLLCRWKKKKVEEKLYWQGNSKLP", "experiment": "Selectivity panel, binding", "details": "read-out: % inhibition @ 10 µM"}, "Estrogen receptor alpha": {"molecular_target": "Estrogen receptor alpha (Homo sapiens, UniProt P03372)", "sequence (P03372 whole entry)": "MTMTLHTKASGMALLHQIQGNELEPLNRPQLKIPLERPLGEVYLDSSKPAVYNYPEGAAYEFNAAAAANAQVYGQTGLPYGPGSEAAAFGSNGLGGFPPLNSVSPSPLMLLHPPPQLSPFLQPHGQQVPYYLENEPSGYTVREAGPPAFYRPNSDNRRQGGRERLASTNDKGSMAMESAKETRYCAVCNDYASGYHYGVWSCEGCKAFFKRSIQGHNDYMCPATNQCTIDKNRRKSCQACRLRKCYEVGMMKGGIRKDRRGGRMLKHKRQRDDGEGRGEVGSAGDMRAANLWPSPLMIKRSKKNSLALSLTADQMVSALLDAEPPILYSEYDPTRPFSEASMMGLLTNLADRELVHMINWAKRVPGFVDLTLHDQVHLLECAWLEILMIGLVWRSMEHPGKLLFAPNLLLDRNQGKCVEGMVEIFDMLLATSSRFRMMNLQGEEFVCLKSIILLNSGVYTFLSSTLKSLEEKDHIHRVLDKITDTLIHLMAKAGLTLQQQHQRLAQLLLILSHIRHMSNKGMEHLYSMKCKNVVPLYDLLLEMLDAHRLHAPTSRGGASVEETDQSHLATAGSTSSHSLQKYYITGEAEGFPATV", "experiment": "Selectivity panel, binding"}, "CB1": {"molecular_target": "CB1 (Homo sapiens, UniProt P21554)", "sequence (P21554 whole entry)": "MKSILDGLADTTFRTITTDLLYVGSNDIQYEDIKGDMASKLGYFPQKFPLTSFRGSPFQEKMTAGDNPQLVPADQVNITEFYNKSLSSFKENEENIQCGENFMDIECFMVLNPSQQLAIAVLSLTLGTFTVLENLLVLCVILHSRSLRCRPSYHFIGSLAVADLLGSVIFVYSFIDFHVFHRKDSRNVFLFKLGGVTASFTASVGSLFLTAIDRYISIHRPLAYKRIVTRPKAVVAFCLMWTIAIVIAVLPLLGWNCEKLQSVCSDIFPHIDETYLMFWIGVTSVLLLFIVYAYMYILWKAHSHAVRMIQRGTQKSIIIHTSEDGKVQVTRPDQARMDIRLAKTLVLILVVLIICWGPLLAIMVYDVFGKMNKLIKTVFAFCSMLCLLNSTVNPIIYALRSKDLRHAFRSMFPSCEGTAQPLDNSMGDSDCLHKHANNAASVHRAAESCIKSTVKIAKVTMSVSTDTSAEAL", "experiment": "Selectivity panel, binding", "details": "read-out: % inhibition @ 10 µM"}},
  "note": "Where “and” joins values, the source holds several entries; their conditions need not be identical. Equal entries are not always repeated. Entries after “also recorded” stand apart in the source; their conditions may differ.",
  "data": [
    {"smiles": "c1cn(-c2cc(NC3=NC[C@@]4(CN5CCC4CC5)O3)ncn2)cn1", "note": "[BMS-933043, (2R)-N-(6-(1H-imidazol-1-yl)-4-pyrimidinyl)-4'H-spiro[4-azabicyclo[2.2.2]octane-2,5'-[1,3]oxazol]-2'-amine]", "values": [
      {"measurement": "IC50", "setting": "Adrenergic α2A", "value": "> 30", "unit": "µM"},
      {"measurement": "IC50", "setting": "rat α1β1δε nAChR", "value": "> 30", "unit": "µM"},
      {"measurement": "IC50", "setting": "PDE3", "value": "> 30", "unit": "µM"},
      {"measurement": "EC50", "setting": "α7 nAChR", "value": 1.9, "unit": "µM"},
      {"measurement": "% ex vivo α7 nAChR occupancy", "setting": "α7 nAChR; 0.3 mg/kg sc, 30 min, individual mice", "value": "11.2% and -5.2% and 7.5% and -6.3%"},
      {"measurement": "% ex vivo α7 nAChR occupancy", "setting": "α7 nAChR; 1 mg/kg sc, 30 min", "value": "18.3% and 25.5% and 25.4% and ~ 20%"},
      {"measurement": "% ex vivo α7 nAChR occupancy", "setting": "α7 nAChR; 3 mg/kg sc, 30 min, individual mice", "value": "56.2% and 44.9% and 45.1%"},
      {"measurement": "% ex vivo α7 nAChR occupancy", "setting": "α7 nAChR; 10 mg/kg sc, 30 min", "value": "76.4% and 74.8% and 75.4% and > 75%"},
      {"measurement": "% ex vivo α7 nAChR occupancy", "setting": "α7 nAChR; 100 mg/kg sc, 30 min, individual mice", "value": "93.3% and 94.1% and 92.1%"},
      {"measurement": "receptor occupancy at 1 mg/kg", "setting": "α7 nAChR; mouse, sc, read-out: % ex vivo α7 nAChR occupancy, 1 mg/kg sc, 30 min", "value": 23.9, "unit": "%"},
      {"measurement": "receptor occupancy at 3 mg/kg", "setting": "α7 nAChR; mouse, sc, read-out: % ex vivo α7 nAChR occupancy, 3 mg/kg sc, 30 min, individual mice", "value": 41.3, "unit": "%"},
      {"measurement": "receptor occupancy at 10 mg/kg", "setting": "α7 nAChR; mouse, sc, read-out: % ex vivo α7 nAChR occupancy, 10 mg/kg sc, 30 min", "value": 78.5, "unit": "%"},
      {"measurement": "receptor occupancy at 100 mg/kg", "setting": "α7 nAChR; mouse, sc, read-out: % ex vivo α7 nAChR occupancy, 100 mg/kg sc, 30 min, individual mice", "value": 91.3, "unit": "%"},
      {"measurement": "IC50", "setting": "Adrenergic α1D", "value": "> 30", "unit": "µM"},
      {"measurement": "IC50", "setting": "Progesterone receptor", "value": "> 150", "unit": "µM"},
      {"measurement": "deviance detection (MMN)", "setting": "[1]; 0.3 mg/kg sc", "value": "just failing to achieve statistical significance"},
      {"measurement": "AUC (150-200 ms) of difference wave, Mean", "setting": "[1]; Study 1, 0.01 mg/kg sc", "value": "-6.608e-005"},
      {"measurement": "AUC (150-200 ms) of difference wave, Mean", "setting": "[1]; Study 1, 0.1 mg/kg sc", "value": -0.0001188},
      {"measurement": "AUC (150-200 ms) of difference wave, Mean", "setting": "[1]; Study 2, 0.03 mg/kg sc", "value": -0.0002362},
      {"measurement": "AUC (150-200 ms) of difference wave, Mean", "setting": "[1]; Study 2, 0.1 mg/kg sc (so in the source)", "value": -0.0001715},
      {"measurement": "AUC (150-200 ms) of difference wave, Mean", "setting": "[1]; Study 3, 1 mg/kg sc", "value": -0.000159},
      {"measurement": "AUC (150-200 ms) of difference wave, Mean", "setting": "[1]; Study 3, 3 mg/kg sc", "value": -0.0001341},
      {"measurement": "deviance detection (MMN)", "setting": "[1]; doses of 0.03, 0.1, 1 and 3 mg/kg sc", "value": "significant deviance detection from a hypothetical zero"},
      {"measurement": "Active dose range, Neonatal PCP MMN", "setting": "[1]; sc", "value": "0.03–3.0 (sc) mg/kg"},
      {"measurement": "EDS performance in neonatal PCP treated rats", "setting": "[2]; 0.1–3 mg/kg po", "value": "significantly improved EDS performance; also recorded: completely reversed by all doses"},
      {"measurement": "Number of trials to criteria, Complex discrimination", "setting": "[2]; PCP/0.1 mg/kg po, 0.1 mg/kg", "value": "6 (2×) and 16 and 7 (2×) and 8 (2×) and 21 and 19"},
      {"measurement": "Number of trials to criteria, Simple discrimination", "setting": "[2]; PCP/0.1 mg/kg po, 0.1 mg/kg", "value": "7 (3×) and 11 and 9 and 8 (2×) and 10 and 6"},
      {"measurement": "Number of trials to criteria, Complex discrimination", "setting": "[2]; PCP/0.3 mg/kg po, 0.3 mg/kg", "value": "18 and 10 (2×) and 7 and 6 (3×) and 8 and 16"},
      {"measurement": "Number of trials to criteria, Simple discrimination", "setting": "[2]; PCP/0.3 mg/kg po, 0.3 mg/kg", "value": "10 and 15 and 13 and 8 and 9 and 12 and 6 and 19 and 7"},
      {"measurement": "Number of trials to criteria, Complex discrimination", "setting": "[2]; PCP/1 mg/kg po, 1 mg/kg", "value": "6 (2×) and 11 (2×) and 7 (2×) and 13 and 14 (2×)"},
      {"measurement": "Number of trials to criteria, Simple discrimination", "setting": "[2]; PCP/1 mg/kg po, 1 mg/kg", "value": "6 (3×) and 12 (2×) and 13 and 11 and 8 and 9"},
      {"measurement": "Number of trials to criteria, Complex discrimination", "setting": "[2]; PCP/3 mg/kg po, 3 mg/kg", "value": "6 (2×) and 8 and 16 and 10 (2×) and 15 and 17 and 11"},
      {"measurement": "Number of trials to criteria, Simple discrimination", "setting": "[2]; PCP/3 mg/kg po, 3 mg/kg", "value": "7 (4×) and 6 (2×) and 16 (2×) and 9"},
      {"measurement": "Active dose range, Neonatal PCP ID/ED", "setting": "[2]; po", "value": "0.1–3.0 (po) mg/kg"},
      {"measurement": "longer time to complete the EDS in neonatal PCP treated rats", "setting": "[2]; po", "value": "attenuated"},
      {"measurement": "IC50", "setting": "Adrenergic α1B", "value": "> 30", "unit": "µM"},
      {"measurement": "IC50", "setting": "Muscarinic M2", "value": 19.1, "unit": "µM"},
      {"measurement": "inhibition at 10 µM", "setting": "Muscarinic M4", "value": 10, "unit": "%"},
      {"measurement": "inhibition at 10 µM", "setting": "Muscarinic M5", "value": 8, "unit": "%"},
      {"measurement": "IC50", "setting": "Estrogen receptor alpha", "value": "> 150", "unit": "µM"},
      {"measurement": "inhibition at 10 µM", "setting": "CB1", "value": -5, "unit": "%"}
    ]}
  ]
}
